From ChEMBL document CHEMBL4393726, “Distinct biological responses of metastatic castration resistant prostate cancer cells upon exposure to G-quadruplex interacting naphthalenediimide derivatives” (Eur J Med Chem, 2019)
The source made the active and inactive calls. No cut-off for these calls is given here.

Key:
DU-145 [1] = test: Cytotoxicity against human DU145 cells assessed as decrease in cell viability after 24 hrs by MTS assay; format: functional, cell-based; conditions: DU-145, 24 h
DU-145 [2] = test: Cytotoxicity against human DU145 cells assessed as decrease in cell viability after 48 hrs by MTS assay; format: functional, cell-based; conditions: DU-145, 48 h
DU-145 [3] = test: Cytotoxicity against human DU145 cells assessed as decrease in cell viability after 72 hrs by MTS assay; format: functional, cell-based; conditions: DU-145, 72 h
PC-3 [4] = test: Cytotoxicity against human PC3 cells assessed as decrease in cell viability after 24 hrs by MTS assay; format: functional, cell-based; conditions: PC-3, 24 h
PC-3 [5] = test: Cytotoxicity against human PC3 cells assessed as decrease in cell viability after 48 hrs by MTS assay; format: functional, cell-based; conditions: PC-3, 48 h
PC-3 [6] = test: Cytotoxicity against human PC3 cells assessed as decrease in cell viability after 72 hrs by MTS assay; format: functional, cell-based; conditions: PC-3, 72 h
PC-3 [7] = test: Effect on ERK 1/2 basal level in human PC3 cells assessed as downregulation of ERK 1/2 basal level at 48 hrs IC50 incubated for 48 hrs by Western immunoblot assay; format: ADME, cell-based; conditions: pc-3, 48 h
DU-145 [8] = test: Effect on ERK 1 basal level in human DU145 cells assessed as reduction in ERK 1 basal level at 48 hrs IC50 incubated for 48 hrs by Western immunoblot assay; format: ADME, cell-based; conditions: du-145, 48 h
DU-145 [9] = test: Effect on ERK 2 basal level in human DU145 cells assessed as reduction in ERK 2 basal level at 48 hrs IC50 incubated for 48 hrs by Western immunoblot assay; format: ADME, cell-based; conditions: du-145, 48 h
PC-3 [10] = test: Effect on ERK 1/2 basel level in human PC3 cells assessed as downregulation of ERK 1/2 basal level at 48 hrs IC50 incubated for 96 hrs by Western immunoblot assay; format: ADME, cell-based; conditions: pc-3, 96 h
[11] = target: T1, Mitogen-activated protein kinase; ERK1/ERK2 (Homo sapiens) (UniProt P27361+P28482); test: Effect on ERK 1/2 phosphorylation at T202/Y204 residues in human DU145 cells assessed as increase in ERK1/2 phosphorylation at T202/Y204 at 48 hrs IC50 incubated for 48 to 96 hrs by Western immunoblot assay; format: cell-based
T1 sequence (P27361 whole entry, looked up): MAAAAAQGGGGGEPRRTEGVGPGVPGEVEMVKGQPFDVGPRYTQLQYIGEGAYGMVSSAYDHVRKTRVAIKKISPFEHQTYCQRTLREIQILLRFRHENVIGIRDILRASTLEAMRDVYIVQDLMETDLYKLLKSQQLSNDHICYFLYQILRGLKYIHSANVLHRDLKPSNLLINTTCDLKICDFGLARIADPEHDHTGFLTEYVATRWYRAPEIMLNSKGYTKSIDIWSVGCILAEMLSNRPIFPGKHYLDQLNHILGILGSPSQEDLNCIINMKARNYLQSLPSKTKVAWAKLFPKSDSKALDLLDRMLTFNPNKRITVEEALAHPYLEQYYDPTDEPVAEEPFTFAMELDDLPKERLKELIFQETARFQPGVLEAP
T1 sequence (P28482 whole entry, looked up): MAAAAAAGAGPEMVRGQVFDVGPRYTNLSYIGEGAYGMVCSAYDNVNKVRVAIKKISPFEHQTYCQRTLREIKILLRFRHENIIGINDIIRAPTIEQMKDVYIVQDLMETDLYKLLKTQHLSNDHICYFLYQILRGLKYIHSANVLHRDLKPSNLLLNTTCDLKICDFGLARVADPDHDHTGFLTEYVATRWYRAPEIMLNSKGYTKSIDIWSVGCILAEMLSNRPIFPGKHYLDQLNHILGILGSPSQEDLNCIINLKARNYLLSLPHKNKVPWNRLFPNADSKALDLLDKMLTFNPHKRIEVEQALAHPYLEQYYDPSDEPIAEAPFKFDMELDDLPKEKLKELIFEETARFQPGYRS

[12] = target: T1, Mitogen-activated protein kinase; ERK1/ERK2 (Homo sapiens); test: Effect on ERK 1/2 phosphorylation at T202/Y204 residues in human PC3 cells assessed as decrease in ERK1/2 phosphorylation at T202/Y204 at 48 hrs IC50 incubated for 48 hrs by Western immunoblot assay; format: cell-based
[13] = target: T1, Mitogen-activated protein kinase; ERK1/ERK2 (Homo sapiens); test: Effect on ERK 1/2 phosphorylation at T202/Y204 residues in human PC3 cells assessed as decrease in ERK1/2 phosphorylation at T202/Y204 at 48 hrs IC50 incubated for 96 hrs by Western immunoblot assay; format: cell-based
DU-145 [14] = test: Effect on AKT basal level in heterozygous PTEN-positive human DU145 cells assessed as reduction in AKT basal level at 48 hrs IC50 incubated for 48 hrs by Western immunoblot assay; format: ADME, cell-based; conditions: du-145, 48 h
[15] = target: RAC-alpha serine/threonine-protein kinase (Homo sapiens) (UniProt P31749); test: Effect on AKT phosphorylation at S473 in heterozygous PTEN-positive human DU145 cells as reduction in AKT phosphorylation at S473 residue at 48 hr IC50 incubated for 48 hrs by Western immunoblot assay
Sequence of RAC-alpha serine/threonine-protein kinase (Homo sapiens) (P31749 whole entry): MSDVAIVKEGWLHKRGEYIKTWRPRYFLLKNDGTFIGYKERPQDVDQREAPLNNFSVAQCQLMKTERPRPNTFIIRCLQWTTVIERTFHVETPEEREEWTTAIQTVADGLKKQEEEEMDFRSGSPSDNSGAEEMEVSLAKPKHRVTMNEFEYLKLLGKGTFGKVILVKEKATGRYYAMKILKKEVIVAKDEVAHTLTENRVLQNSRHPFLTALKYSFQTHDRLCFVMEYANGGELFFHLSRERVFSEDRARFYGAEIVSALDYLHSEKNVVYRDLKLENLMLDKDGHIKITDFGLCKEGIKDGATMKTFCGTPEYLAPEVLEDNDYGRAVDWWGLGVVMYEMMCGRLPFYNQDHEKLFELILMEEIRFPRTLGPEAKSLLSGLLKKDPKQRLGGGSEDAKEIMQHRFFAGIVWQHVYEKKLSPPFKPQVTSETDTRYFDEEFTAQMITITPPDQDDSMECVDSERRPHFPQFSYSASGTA

[16] = target: RAC-alpha serine/threonine-protein kinase (Homo sapiens) (UniProt P31749); test: Effect on AKT phosphorylation at S473 homozygous PTEN-deficient human PC3 cells as reduction in AKT phosphorylation at S473 residue at 48 hr IC50 incubated for 48 to 96 hrs by Western immunoblot assay
PC-3 [17] = test: Effect on AKT basal level in homozygous PTEN-deficient human PC3 cells assessed as reduction in AKT basal level at 48 hr IC50 incubated for 48 to 96 hrs by Western immunoblot assay; format: ADME, cell-based
DU-145 [18] = test: Effect on human DU145 cell growth assessed as population doubling at 48 hr IC50 incubated for 96 hrs by cell counter based trypan blue exclusion assay (reference value: 2.89); format: functional
PC-3 [19] = test: Effect on human PC3 cell growth assessed as no change in population doubling at 48 hr IC50 incubated for 48 hrs by cell counter based trypan blue exclusion assay; format: functional
PC-3 [20] = test: Effect on human PC3 cell growth assessed as population doubling at 48 hr IC50 incubated for 96 hrs by cell counter based trypan blue exclusion assay (reference value: 2.6); format: functional
DU-145 [21] = test: Induction of apoptosis in human DU145 cells assessed as increase in cleaved PARP1 level after 48 to 96 hrs by Western blot analysis; format: functional, cell-based
PC-3 [22] = test: Induction of apoptosis in human PC3 cells assessed as increase in cleaved PARP1 level after 48 to 96 hrs by Western blot analysis; format: functional, cell-based
Quadruplex DNA [23] = test: Stabilization of synthetic 5'Dabcyl/3'-FAM-labeled telomeric 22 G4 quadruplex DNA assessed as change in melting temperature by fluorescence melting assay; format: nucleic-acid assay
Quadruplex DNA [24] = test: Stabilization of synthetic 5'Dabcyl/3'-FAM-labeled EGFR 272 G4 quadruplex DNA assessed as change in melting temperature by fluorescence melting assay; format: nucleic-acid assay
Quadruplex DNA [25] = test: Stabilization of synthetic 5'Dabcyl/3'-FAM-labeled EGFR 272 G4 quadruplex DNA assessed as change in melting temperature at 1 uM by Fluorescence melting assay; format: nucleic-acid assay
DU-145 [26] = test: Down regulation of EGFR protein expression in human DU145 cells at 48 hrs IC50 incubated for 96 hrs by Western immunoblot assay relative to control; format: functional
PC-3 [27] = test: Down regulation of EGFR protein expression in human PC3 cells at 48 hrs IC50 incubated for 96 hrs by Western immunoblot assay relative to control; format: functional
PC-3 [28] = test: Down regulation of EGFR protein expression in human PC3 cells at 48 hrs IC50 incubated for 48 hrs by Western immunoblot assay relative to control; format: functional
Homo sapiens [29] = species on record: Homo sapiens; test: Effect on telomere DNA in human PC3 cells assessed as telomere DNA length at 48 hrs 0.5 times IC50 treated for every week for 56 days by pulsed field electrophoresis/southern blot based densitometric analysis (reference value: 4.6 +/- 0.3 kb); format: cell-based
Homo sapiens [30] = species on record: Homo sapiens; test: Effect on telomere DNA in human DU145 cells assessed as telomere DNA length at 48 hrs 0.5 times IC50 treated for every week for 56 days by pulsed field electrophoresis/southern blot based densitometric analysis (reference value: 3.9 +/- 0.5 kb); format: cell-based
Homo sapiens [31] = species on record: Homo sapiens; test: Effect on telomere DNA in human PC3 cell assessed as increase in telomere DNA length at 48 hrs 0.5 times IC50 treated for every week for 56 days by pulsed field electrophoresis/southern blot based densitometric analysis
DU-145 [32] = test: Effect on human DU145 cell growth assessed as change in cell growth at 72 hrs 0.5 times IC50 treated for every week for 56 days by cell counter based trypan blue exclusion assay; format: functional
DU-145 [33] = test: Effect of EGFR protein expression in human DU145 cell at 48 hrs IC50 treated for every week for 56 days by Western immunoblotting analysis; format: functional, cell-based
PC-3 [34] = test: Effect on human PC3 cell growth assessed as reduction in cell growth at 72 hrs 0.5 times IC50 treated for every week for 56 days by cell counter based trypan blue exclusion assay; format: functional
PC-3 [35] = test: Effect of EGFR protein expression in human PC3 cell assessed as reduction in EGFR level at 48 hrs IC50 treated for every week for 56 days by Western immunoblotting analysis; format: functional
PC-3 [36] = test: Effect on telomeric C-circle DNA in human PC3 cell assessed as alternative telomere maintenance based increase in telomeric C-circle DNA level at 48 hrs 0.5 times IC50 treated for every week for 56 days [32P]-labeled (CCCTAA)3 probe incubated for 56 days followed by post incubation of 8 hrs in presence of Bacillus phage phi29 DNA polymerase and further heat inactivation at 65 degreeC for 20 mins by dot blot based CC assay; format: functional
PC-3 [37] = test: Effect on ephithelial-mesenchymal transition in human PC3 cell assessed as decrease in E-cadherin expression at 48 hrs 0.5 times IC50 treated for every week for 56 days by Western immunoblotting analysis; format: functional, cell-based
Quadruplex DNA [38] = test: Binding affinity to synthetic 5'Dabcyl/3'-FAM-labeled EGFR 272 G4 quadruplex DNA folded DNA assessed as enthalpy change by isothermal titration calorimetry; format: nucleic-acid assay
Quadruplex DNA [39] = test: Binding affinity to synthetic 5'Dabcyl/3'-FAM-labeled telomeric 22 G4 quadruplex DNA folded DNA assessed as enthalpy change by isothermal titration calorimetry; format: nucleic-acid assay
Quadruplex DNA [40] = test: Binding affinity to synthetic 5'Dabcyl/3'-FAM-labeled telomeric 22 G4 quadruplex DNA folded DNA assessed as entropy change by isothermal titration calorimetry; format: nucleic-acid assay
Quadruplex DNA [41] = test: Binding affinity to synthetic 5'Dabcyl/3'-FAM-labeled EGFR 272 G4 quadruplex DNA folded DNA assessed as entropy change by isothermal titration calorimetry; format: nucleic-acid assay
DU-145 [42] = test: Down regulation of EGFR protein expression in human DU145 cells after 24 hrs by Western immunoblot assay; format: functional, cell-based
PC-3 [43] = test: Down regulation of EGFR protein expression in human PC3 cells after 24 hrs by Western immunoblot assay; format: functional, cell-based
PC-3 [44] = test: Effect on ephithelial-mesenchymal transition in human PC3 cell assessed as increase in vimentin at 48 hrs 0.5 times IC50 treated for every week for 56 days by Western immunoblotting analysis; format: functional, cell-based

COc1ccccc1CNCCCN1C(=O)c2ccc3c4c(ccc(c24)C1=O)C(=O)N(CCCNCCCCN)C3=O
IC50 (DU-145 [1]): 4.76 µM | IC50 (DU-145 [2]): 2.73 µM | IC50 (DU-145 [3]): 2.05 µM | IC50 (PC-3 [4]): 2.8 µM | IC50 (PC-3 [5]): 2.44 µM | IC50 (PC-3 [6]): 1.46 µM | Activity (PC-3 [7]): Toxic | Activity (DU-145 [8]): Toxic | Activity (DU-145 [9]): Toxic | Activity (PC-3 [10]): Toxic | Activity [11]: Active | Activity [12]: Active | Activity [13]: inactive | Activity (DU-145 [14]): Toxic | Activity [15]: inactive | Activity [16]: Active | Activity (PC-3 [17]): Toxic | Activity (DU-145 [18]): 1.85 | Activity (PC-3 [19]): Active | Activity (PC-3 [20]): 0.97 | Activity (DU-145 [21]): Active | Activity (PC-3 [22]): inactive | Activity (Quadruplex DNA [23]): Active | Activity (Quadruplex DNA [24]): Active | Activity (Quadruplex DNA [25]): Active | Activity (DU-145 [26]): 20% | Activity (PC-3 [27]): 50% | Activity (PC-3 [28]): 70 - 80% | Activity (Homo sapiens [29]): 4.4 kilobase | Activity (Homo sapiens [30]): 3.8 kilobase | Activity (Homo sapiens [31]): Active | Activity (DU-145 [32]): inactive | Activity (DU-145 [33]): inactive | Activity (PC-3 [34]): Active | inhibition (INH) (PC-3 [35]): 100% | Activity (PC-3 [36]): Active | Activity (PC-3 [37]): Active | deltaH (Quadruplex DNA [38]): -1.1 kcal/mol | deltaH (Quadruplex DNA [39]): -8 kcal/mol | deltaS (Quadruplex DNA [40]): -1.9 cal/mol.K | deltaS (Quadruplex DNA [41]): 18.9 cal/mol.K | Activity (DU-145 [42]): Dose-dependent effect | Activity (PC-3 [43]): Dose-dependent effect | Activity (PC-3 [44]): Active

COc1ccc(CNCCCN2C(=O)c3ccc4c5c(ccc(c35)C2=O)C(=O)N(CCCNCc2ccc(OC)c(OC)c2OC)C4=O)c(OC)c1OC
IC50 (DU-145 [1]): 3.46 µM | IC50 (DU-145 [2]): 2.26 µM | IC50 (DU-145 [3]): 1.72 µM | IC50 (PC-3 [4]): 1.36 µM | IC50 (PC-3 [5]): 0.97 µM | IC50 (PC-3 [6]): 0.63 µM | Activity (PC-3 [7]): Toxic | Activity (DU-145 [8]): Toxic | Activity (PC-3 [10]): Toxic | Activity [11]: Active | Activity [12]: Active | Activity [13]: inactive | Activity (DU-145 [14]): Toxic | Activity [15]: inactive | Activity [16]: Active | Activity (PC-3 [17]): Toxic | Activity (DU-145 [18]): 2 | Activity (PC-3 [19]): Active | Activity (PC-3 [20]): 0.51 | Activity (DU-145 [21]): Active | Activity (PC-3 [22]): inactive | Activity (Quadruplex DNA [23]): Active | Activity (Quadruplex DNA [24]): Active | Activity (Quadruplex DNA [25]): Active | Activity (DU-145 [26]): 20% | Activity (PC-3 [28]): 70 - 80% | Activity (Homo sapiens [29]): 4.5 kilobase | Activity (Homo sapiens [30]): 3.8 kilobase | Activity (Homo sapiens [31]): Active | Activity (DU-145 [32]): inactive | Activity (DU-145 [33]): inactive | Activity (PC-3 [34]): Active | inhibition (INH) (PC-3 [35]): 100% | Activity (PC-3 [36]): Active | Activity (PC-3 [37]): Active | deltaH (Quadruplex DNA [38]): -21.5 kcal/mol | deltaH (Quadruplex DNA [39]): -10.7 kcal/mol | deltaS (Quadruplex DNA [40]): -10.1 cal/mol.K | deltaS (Quadruplex DNA [41]): -46.4 cal/mol.K | Activity (DU-145 [42]): Dose-dependent effect | Activity (PC-3 [43]): Dose-dependent effect | Activity (PC-3 [44]): Active
